# Biological target: T1, human EP4 receptor (Homo sapiens, UniProt P35408)
# T1 construct: expressed in transfected cells; host or cells: Chinese Hamster Ovary (CHO) cells infected with recombinant Semliki Forest Virus (SFV-1) particles; membranes prepared from these cells
# Assay: Human EP4 Scintillation Proximity Assay (radioligand binding)
# Conditions: membranes of CHO cells expressing human EP4 receptor; [3H]-prostaglandin E2 radioligand; pKi from IC50 by Cheng-Prusoff; read-out: pKI at EP4 receptors (converted)
# Procedure: Quantification of radioligand binding by scintillation proximity assay (SPA) is a long-established principle. Briefly, the affinity of compounds for a receptor is assessed by the specific competition between known quantities of radiolabelled ligand and compound for that receptor. Increasing concentrations of compound reduce the amount of radiolabel that binds to the receptor. This gives rise to a diminishing scintillation signal from SPA beads coated with membranes that bear the receptor. The signal may be detected with a suitable scintillation counter and the data generated may be analysed with suitable curve-fitting software.
# The human EP4 SPA assay (hereafter referred to as ‘the assay’) utilises membranes prepared from Chinese Hamster Ovary (CHO cells) infected with Semliki Forest Virus (SFV). Genetically engineered SFV-1 viral particles containing the genetic sequence of the human EP4 receptor were used to infect CHO cells resulting in expression of the receptor protein in cellular membranes. Cells washed free of media are homogenised in a pH-buffered medium containing peptidase inhibitors. A suitable buffer is of the following composition: 50 mM HEPES, 1 mM EDTA, 25 μg/ml bacitracin, 100 μM leupeptin, 1 mM PMSF, 2 μM Pepstatin A, pH adjusted to 7.4 with KOH. Following removal of cell debris by a low-speed centrifugation, a pellet of membranes is prepared by a high-speed (48000 g) centrifugation of the resulting supernatant. Membrane suspensions such as that described may be stored at −80° C. until used.
# For assay, membranes expressing human EP4 receptors are diluted in a pH-buffered medium and mixed with SPA beads coated with a suitable substance to facilitate the adhesion of membranes to the beads. The concentrations of membrane protein and SPA beads chosen should result in SPA binding signal of at least 300 corrected counts per minute (CCPM) when tritiated radioligand at a concentration close to its Kd (affinity value) is combined with the mixture. Non-specific binding (nsb) may be determined by competition between the radiolabelled ligand and a saturating concentration of unlabelled ligand. In order to quantify the affinity of EP4 receptor ligands, compounds are diluted in a stepwise manner across the wells of a 96-well plate. Radioligand, compound, and unlabelled ligand are then added to a 96-well plate suitable for the measurement of SPA binding signals prior to the addition of bead/membrane mixture to initiate the binding reaction. Equilibrium may be achieved by incubation at room temperature for 120 minutes prior to scintillation counting. The data so generated may be analysed by means of a computerised curve-fitting routine in order to quantify the concentration of compound that displaces 50% of the specific radioligand binding (IC50). The affinity (pKi) of the compound may be calculated from the IC50 by application of the Cheng-Prusoff correction. Suitable reagents and protocols are: reaction buffer containing 50 mM HEPES, 10 mM MgCl2, pH adjusted to 7.4 with KOH; SPA beads coated with wheatgerm agglutinin; 1.25 nM [^3H]-prostaglandin E2 as radioligand; 10 μM prostaglandin E2 as unlabelled ligand; a three-fold dilution series of compound starting at 10 μM and ending at 0.3 nM is adequate.
# T1 sequence (P35408 whole entry): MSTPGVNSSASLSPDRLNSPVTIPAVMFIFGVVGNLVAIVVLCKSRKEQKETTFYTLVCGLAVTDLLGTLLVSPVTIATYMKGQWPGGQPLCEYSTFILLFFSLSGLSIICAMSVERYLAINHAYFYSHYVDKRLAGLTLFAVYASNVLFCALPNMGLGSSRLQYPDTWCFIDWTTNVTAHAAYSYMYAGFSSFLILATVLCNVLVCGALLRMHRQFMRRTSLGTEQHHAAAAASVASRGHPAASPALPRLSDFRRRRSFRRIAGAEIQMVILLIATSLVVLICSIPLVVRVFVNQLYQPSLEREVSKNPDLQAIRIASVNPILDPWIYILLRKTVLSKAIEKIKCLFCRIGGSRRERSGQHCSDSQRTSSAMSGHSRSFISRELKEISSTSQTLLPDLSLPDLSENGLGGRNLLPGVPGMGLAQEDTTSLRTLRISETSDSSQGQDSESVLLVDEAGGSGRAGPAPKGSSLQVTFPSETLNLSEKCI
row,Compound,Ki [µM]
1,CCOc1c2c(c(OCC)c3ccccc13)C(=O)N(c1ccc(CS(=O)(=O)NC(=O)C(Cl)c3ccccc3)cc1)C2=O (stereo not shown) [Example 75],≤ 0.1
2,CCOc1c2c(c(OCC)c3ccccc13)C(=O)N(c1ccc(CS(=O)(=O)NC(=O)Cc3cccc4ccccc34)cc1)C2=O [Example 76],≤ 0.1
3,CCOc1c2c(c(OCC)c3ccccc13)C(=O)N(c1ccc(CS(=O)(=O)NC(=O)Cc3ccc4ccccc4c3)cc1)C2=O [Example 77],≤ 0.1
4,CCOc1c2c(c(OCC)c3ccccc13)C(=O)N(c1ccc(CS(=O)(=O)NC(=O)C(C)c3ccc4cc(OC)ccc4c3)cc1)C2 (stereo not shown) [Example 86],≤ 0.1
5,CCOc1c2c(c(OCC)c3ccccc13)C(=O)N(c1ccc(CS(=O)(=O)NC(=O)Cc3ccc4c(c3)OCO4)cc1)C2=O [Example 93],≤ 0.1

# The next lines start with the values.
row,Ki [µM],Compound
1,≤ 0.1,CCOc1c2c(c(OCC)c3ccccc13)C(=O)N(c1ccc(CS(=O)(=O)NC(=O)Cc3ccc(OC(F)(F)F)cc3)cc1)C2 [Example 80]
2,≤ 0.1,CCOc1c2c(c(OCC)c3ccccc13)C(=O)N(c1ccc(CS(=O)(=O)NC(=O)Cc3cccc(OC(F)(F)F)c3)cc1)C2 [Example 81]
3,≤ 0.1,CCOc1ccc(CC(=O)NS(=O)(=O)Cc2ccc(N3Cc4c(c(OCC)c5ccccc5c4OCC)C3=O)cc2)cc1OCC [Example 82]
4,≤ 0.1,CCOc1c2c(c(OCC)c3ccccc13)C(=O)N(c1ccc(CS(=O)(=O)NC(=O)Cc3cc(OC)cc(OC)c3)cc1)C2 [Example 83]
5,≤ 0.1,CCOc1c2c(c(OCC)c3ccccc13)C(=O)N(c1ccc(CS(=O)(=O)NC(=O)Cc3ccc4c(c3)OCO4)cc1)C2 [Example 84]
6,≤ 0.1,CCOc1c2c(c(OCC)c3ccccc13)C(=O)N(c1ccc(CS(=O)(=O)NC(=O)Cc3ccc4c(c3)OC(C)(C)O4)cc1)C2 [Example 85]
7,≤ 0.1,CCOc1c2c(c(OCC)c3ccccc13)C(=O)N(c1ccc(CS(=O)(=O)NC(=O)Cn3ccc4ccccc43)cc1)C2 [Example 87]
8,≤ 0.1,CCOc1c2c(c(OCC)c3ccccc13)C(=O)N(c1ccc(CS(=O)(=O)NC(=O)Cc3cccc4occc34)cc1)C2 [Example 88]

# — patent publication US6924297B2, “Naphathalene derivatives which bind to the EP4 receptor” (SmithKline Beecham Corporation, priority 2000, dated 2005)
